Test results from ChEMBL document CHEMBL3352570, “ST7612AA1, a thioacetate-ω(γ-lactam carboxamide) derivative selected from a novel generation of oral HDAC inhibitors” (J Med Chem, 2014).

Assays:
Histone deacetylase 2 = Histone deacetylase 2 (Homo sapiens, UniProt Q92769); experiment: Inhibition of HDAC2 (unknown origin) using fluorogenic tetrapeptide RHKK(Ac) substrate by fluorescence assay
[1] = biological target: T1, Protein deacetylase HDAC6 (Homo sapiens, UniProt Q9UBN7); experiment: Inhibition of HDAC6 (unknown origin) using fluorogenic tetrapeptide RHKK(Ac) substrate by fluorescence assay
T1 sequence (Q9UBN7 whole entry): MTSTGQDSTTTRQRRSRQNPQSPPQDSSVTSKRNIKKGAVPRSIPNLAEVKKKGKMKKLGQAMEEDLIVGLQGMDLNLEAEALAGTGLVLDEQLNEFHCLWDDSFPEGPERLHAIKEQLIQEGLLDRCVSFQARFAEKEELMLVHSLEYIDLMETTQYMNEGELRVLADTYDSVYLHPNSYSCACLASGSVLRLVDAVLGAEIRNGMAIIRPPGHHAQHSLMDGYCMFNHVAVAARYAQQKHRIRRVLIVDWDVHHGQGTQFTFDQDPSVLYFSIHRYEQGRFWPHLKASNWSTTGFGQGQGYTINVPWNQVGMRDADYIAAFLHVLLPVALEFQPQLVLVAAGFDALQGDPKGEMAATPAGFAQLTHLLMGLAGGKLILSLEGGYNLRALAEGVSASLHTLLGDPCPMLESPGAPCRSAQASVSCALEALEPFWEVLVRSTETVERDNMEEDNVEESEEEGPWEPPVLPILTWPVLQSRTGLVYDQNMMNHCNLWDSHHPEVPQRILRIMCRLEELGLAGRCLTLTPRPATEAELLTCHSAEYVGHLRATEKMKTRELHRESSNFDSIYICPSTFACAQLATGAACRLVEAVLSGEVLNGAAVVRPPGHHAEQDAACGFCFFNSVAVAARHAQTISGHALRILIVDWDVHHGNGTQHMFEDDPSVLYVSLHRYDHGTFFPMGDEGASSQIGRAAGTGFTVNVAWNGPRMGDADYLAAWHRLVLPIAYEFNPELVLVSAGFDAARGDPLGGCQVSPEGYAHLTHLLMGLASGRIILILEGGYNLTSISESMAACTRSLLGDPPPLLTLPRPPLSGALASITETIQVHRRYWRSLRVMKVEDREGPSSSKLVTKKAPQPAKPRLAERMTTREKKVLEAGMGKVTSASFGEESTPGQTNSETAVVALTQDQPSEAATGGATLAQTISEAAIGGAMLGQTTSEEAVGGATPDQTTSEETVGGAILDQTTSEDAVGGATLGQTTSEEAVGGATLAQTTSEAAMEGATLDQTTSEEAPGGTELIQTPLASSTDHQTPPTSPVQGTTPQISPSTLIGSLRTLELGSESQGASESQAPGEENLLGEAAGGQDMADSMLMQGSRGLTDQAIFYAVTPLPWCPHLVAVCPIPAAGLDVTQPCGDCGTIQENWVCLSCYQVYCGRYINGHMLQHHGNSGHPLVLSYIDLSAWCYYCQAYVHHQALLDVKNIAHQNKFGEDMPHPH

Histone deacetylase 3 = Histone deacetylase 3 (Homo sapiens, UniProt O15379); experiment: Inhibition of HDAC3 (unknown origin) using fluorogenic tetrapeptide RHKK(Ac) substrate by fluorescence assay
Histone deacetylase 11 = biological target: T2, Histone deacetylase 11 (Homo sapiens, UniProt Q96DB2); experiment: Inhibition of HDAC11 (unknown origin) using fluorogenic tetrapeptide RHKK(Ac) substrate by fluorescence assay
T2 sequence (Q96DB2 whole entry): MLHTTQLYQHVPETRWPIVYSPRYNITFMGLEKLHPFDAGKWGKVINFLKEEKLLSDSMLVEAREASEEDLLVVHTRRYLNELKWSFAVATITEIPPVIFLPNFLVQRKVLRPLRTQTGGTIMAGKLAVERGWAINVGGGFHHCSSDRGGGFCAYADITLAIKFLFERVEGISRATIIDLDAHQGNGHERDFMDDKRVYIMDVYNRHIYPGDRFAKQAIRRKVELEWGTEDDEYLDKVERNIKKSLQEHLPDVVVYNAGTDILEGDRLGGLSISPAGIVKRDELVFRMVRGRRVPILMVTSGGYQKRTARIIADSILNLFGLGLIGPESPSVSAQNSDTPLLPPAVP

[2] = biological target: T3, Polyamine deacetylase HDAC10 (Homo sapiens, UniProt Q969S8); experiment: Inhibition of HDAC10 (unknown origin) using fluorogenic tetrapeptide RHKK(Ac) substrate by fluorescence assay
T3 sequence (Q969S8 whole entry): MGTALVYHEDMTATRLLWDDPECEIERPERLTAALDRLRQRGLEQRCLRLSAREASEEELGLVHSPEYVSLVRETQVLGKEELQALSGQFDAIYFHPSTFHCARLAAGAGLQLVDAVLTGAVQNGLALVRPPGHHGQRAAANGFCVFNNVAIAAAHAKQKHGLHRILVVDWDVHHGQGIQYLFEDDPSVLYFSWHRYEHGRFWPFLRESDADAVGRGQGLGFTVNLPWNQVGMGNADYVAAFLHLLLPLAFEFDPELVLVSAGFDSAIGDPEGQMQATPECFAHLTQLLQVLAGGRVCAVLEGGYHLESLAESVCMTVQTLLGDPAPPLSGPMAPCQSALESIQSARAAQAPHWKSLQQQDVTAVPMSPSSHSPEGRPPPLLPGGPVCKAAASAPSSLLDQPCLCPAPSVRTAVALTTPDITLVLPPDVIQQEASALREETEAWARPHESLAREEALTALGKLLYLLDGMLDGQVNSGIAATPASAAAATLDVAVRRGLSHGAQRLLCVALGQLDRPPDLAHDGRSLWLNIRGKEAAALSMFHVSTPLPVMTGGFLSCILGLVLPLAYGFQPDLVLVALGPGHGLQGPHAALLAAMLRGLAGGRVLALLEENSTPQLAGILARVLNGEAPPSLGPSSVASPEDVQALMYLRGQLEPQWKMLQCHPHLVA

Histone deacetylase 8 = biological target: T4, Histone deacetylase 8 (Homo sapiens, UniProt Q9BY41); experiment: Inhibition of HDAC8 (unknown origin) using fluorogenic tetrapeptide RHK(Ac)K(Ac) substrate by fluorescence assay
T4 sequence (Q9BY41 whole entry): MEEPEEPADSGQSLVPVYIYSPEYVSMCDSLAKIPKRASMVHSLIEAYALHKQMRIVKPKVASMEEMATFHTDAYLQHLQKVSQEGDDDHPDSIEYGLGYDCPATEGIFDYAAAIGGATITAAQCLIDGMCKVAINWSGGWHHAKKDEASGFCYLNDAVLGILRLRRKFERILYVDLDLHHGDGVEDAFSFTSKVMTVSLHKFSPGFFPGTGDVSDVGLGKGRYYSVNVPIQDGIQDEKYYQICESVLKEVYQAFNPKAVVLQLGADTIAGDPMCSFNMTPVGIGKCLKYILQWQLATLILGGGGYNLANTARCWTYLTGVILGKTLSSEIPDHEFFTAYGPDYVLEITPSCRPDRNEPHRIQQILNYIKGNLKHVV

Histone deacetylase 1 = Histone deacetylase 1 (Homo sapiens, UniProt Q13547); experiment: Inhibition of HDAC1 (unknown origin) using fluorogenic tetrapeptide RHKK(Ac) substrate by fluorescence assay
Chain of Histone deacetylase 1 (Q13547 whole entry): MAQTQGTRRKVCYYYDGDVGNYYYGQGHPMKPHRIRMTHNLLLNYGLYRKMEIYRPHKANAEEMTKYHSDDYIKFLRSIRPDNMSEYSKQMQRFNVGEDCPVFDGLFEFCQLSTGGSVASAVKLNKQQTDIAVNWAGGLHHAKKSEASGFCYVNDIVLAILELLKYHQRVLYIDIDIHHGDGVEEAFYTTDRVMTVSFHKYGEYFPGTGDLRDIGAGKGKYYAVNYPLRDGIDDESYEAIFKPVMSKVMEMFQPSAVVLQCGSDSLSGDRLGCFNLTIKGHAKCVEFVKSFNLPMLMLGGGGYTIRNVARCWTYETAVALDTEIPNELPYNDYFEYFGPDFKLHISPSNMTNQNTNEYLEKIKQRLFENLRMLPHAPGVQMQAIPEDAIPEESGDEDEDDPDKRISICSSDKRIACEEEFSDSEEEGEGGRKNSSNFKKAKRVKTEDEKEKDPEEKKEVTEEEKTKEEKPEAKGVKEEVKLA

Chain of Histone deacetylase 2 (Q92769 whole entry): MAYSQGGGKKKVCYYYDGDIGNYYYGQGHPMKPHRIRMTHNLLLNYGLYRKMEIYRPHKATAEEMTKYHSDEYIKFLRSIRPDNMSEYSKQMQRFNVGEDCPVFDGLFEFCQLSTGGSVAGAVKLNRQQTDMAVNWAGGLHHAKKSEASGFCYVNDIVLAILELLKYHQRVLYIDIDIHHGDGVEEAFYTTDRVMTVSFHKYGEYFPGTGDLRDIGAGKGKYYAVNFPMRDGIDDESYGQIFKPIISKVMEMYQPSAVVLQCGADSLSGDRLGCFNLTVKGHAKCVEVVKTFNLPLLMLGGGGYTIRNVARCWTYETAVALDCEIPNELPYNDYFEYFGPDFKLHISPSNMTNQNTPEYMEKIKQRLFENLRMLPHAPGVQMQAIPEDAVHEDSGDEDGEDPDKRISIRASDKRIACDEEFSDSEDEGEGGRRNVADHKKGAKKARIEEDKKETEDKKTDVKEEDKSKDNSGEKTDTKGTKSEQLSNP
Chain of Histone deacetylase 3 (O15379 whole entry): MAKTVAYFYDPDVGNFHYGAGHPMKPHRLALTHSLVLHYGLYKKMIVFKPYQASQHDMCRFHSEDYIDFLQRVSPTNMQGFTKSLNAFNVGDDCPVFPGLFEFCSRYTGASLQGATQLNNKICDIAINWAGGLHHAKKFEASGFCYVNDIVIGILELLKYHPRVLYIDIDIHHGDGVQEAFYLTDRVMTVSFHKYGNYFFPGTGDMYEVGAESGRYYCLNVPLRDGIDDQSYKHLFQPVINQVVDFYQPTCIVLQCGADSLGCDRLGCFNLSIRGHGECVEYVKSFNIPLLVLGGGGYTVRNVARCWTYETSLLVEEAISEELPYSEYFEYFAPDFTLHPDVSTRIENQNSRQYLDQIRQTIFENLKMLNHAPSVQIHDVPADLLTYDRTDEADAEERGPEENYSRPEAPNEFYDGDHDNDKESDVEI

SMILES	IC50 (Histone deacetylase 2) [nM]	IC50 [1] [nM]	IC50 (Histone deacetylase 3) [nM]	IC50 (Histone deacetylase 11) [nM]	IC50 [2] [nM]	IC50 (Histone deacetylase 8) [nM]	IC50 (Histone deacetylase 1) [nM]
O=C1CCC[C@@H](C(=O)N[C@@H](CCCCCS)C(=O)NC2CCCC2)N1	454	6	98	89	189	450	160
O=C1NC[C@H](c2ccccc2)[C@@H]1C(=O)N[C@@H](CCCCCS)C(=O)Nc1ccccc1	168	4	9	13	14	310	32
Cc1cccc(CCNC(=O)[C@H](CCCCCS)NC(=O)[C@@H]2CCCC(=O)N2)c1	601	15	122	82	81	17	92
O=C1NC[C@@H](c2ccccc2)[C@H]1C(=O)N[C@@H](CCCCCS)C(=O)Nc1ccccc1	1900	35	72	24	14	2570	74
O=C(CCCCCCS)NC1CCCC1	6640	87	897	776	1170	2330	865
CN1C(=O)CC[C@@H]1C(=O)N[C@@H](CCCCCS)C(=O)Nc1ccccc1	103	5	49	67	116	545	58
CN1C(=O)CCC[C@H]1C(=O)N[C@@H](CCCCCS)C(=O)Nc1ccccc1	70	3	7	5	6	202	11
O=C1CCC[C@@H](C(=O)N[C@@H](CCCCCS)C(=O)NCc2ccc(C(F)(F)F)cc2)N1	1770	139	475	140	310	23	386
Cc1ccc(NC(=O)[C@H](CCCCCS)NC(=O)[C@@H]2CCCC(=O)N2)cc1	60	2	3	3	4	360	8
Cc1cccc(CCNC(=O)CCCCCCS)c1	10700	2710	2600	1870	3930	246	3210
O=C1C[C@@H](C(=O)N[C@@H](CCCCCS)C(=O)Nc2ccccc2)N1	68	2	8	10	9	61	8
O=C1CC[C@H](C(=O)N[C@H](CCCCCS)C(=O)Nc2ccccc2)N1	171	21	138	102	40	8100	101
O=C1NC[C@H](c2ccccc2)[C@H]1C(=O)N[C@@H](CCCCCS)C(=O)Nc1ccccc1	2230	160	55	12	7	2040	53
O=C(CCCCCCS)NCc1ccc(C(F)(F)F)cc1	19400	5300	2710	2070	6290	373	5960
O=C1CCC[C@@H](C(=O)N[C@@H](CCCCCS)C(=O)NCc2cccc(OCc3ccccc3)c2)N1	2540	83	495	293	658	9	504

Now those with a lower IC50 (Histone deacetylase 2), led by results:

IC50 (Histone deacetylase 2) [nM]	IC50 [1] [nM]	IC50 (Histone deacetylase 3) [nM]	IC50 (Histone deacetylase 11) [nM]	IC50 [2] [nM]	IC50 (Histone deacetylase 8) [nM]	IC50 (Histone deacetylase 1) [nM]	SMILES
12	5	11	44	7	316	5	O=C1CC[C@H](C(=O)N[C@@H](CCCCCS)C(=O)Nc2cccc(C(F)(F)F)c2)N1
34	5	6	10	32	107	10	O=C1CCC[C@H](C(=O)N[C@@H](CCCCCS)C(=O)Nc2ccccc2)N1
48	1	5	15	11	122	12	O=C1NCCC[C@@H]1C(=O)N[C@@H](CCCCCS)C(=O)Nc1ccccc1
33	1	13	30	15	59	24	O=C1CC[C@@H](C(=O)N[C@@H](CCCCCS)C(=O)Nc2ccccc2)N1
37	4	2	4	5	40	7	O=C1NC[C@@H](c2ccccc2)[C@@H]1C(=O)N[C@@H](CCCCCS)C(=O)Nc1ccccc1
28	1	3	9	9	62	7	O=C1NCCC[C@H]1C(=O)N[C@@H](CCCCCS)C(=O)Nc1ccccc1
5	1	5	12	2	99	3	Cc1cccc(NC(=O)[C@H](CCCCCS)NC(=O)[C@H]2CCC(=O)N2C)c1
